ChEMBL document CHEMBL1151055, “A comparative SAR and computer modeling study of benzisothiazolone, mechanism-based inhibitors with porcine pancreatic and human leukocyte elastase” (Bioorg Med Chem Lett, 1996)

How the values were obtained:
[1] = molecular target: T1, Neutrophil elastase (Homo sapiens) (UniProt P08246); experiment: Irreversible inhibitory activity against human leukocyte elastase
T1 sequence (whole entry): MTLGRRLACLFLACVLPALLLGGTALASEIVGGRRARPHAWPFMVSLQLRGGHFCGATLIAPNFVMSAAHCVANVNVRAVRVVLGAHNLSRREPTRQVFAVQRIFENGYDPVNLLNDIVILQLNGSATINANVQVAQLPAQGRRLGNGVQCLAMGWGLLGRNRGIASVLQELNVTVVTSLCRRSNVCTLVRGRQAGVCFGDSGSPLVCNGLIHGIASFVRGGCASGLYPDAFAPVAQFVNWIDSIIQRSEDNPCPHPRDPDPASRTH

[2] = molecular target: T2, Chymotrypsin-like elastase family member 2A (Sus scrofa) (UniProt P08419); experiment: Irreversible inhibitory activity against porcine pancreatic elastase
T2 sequence (whole entry): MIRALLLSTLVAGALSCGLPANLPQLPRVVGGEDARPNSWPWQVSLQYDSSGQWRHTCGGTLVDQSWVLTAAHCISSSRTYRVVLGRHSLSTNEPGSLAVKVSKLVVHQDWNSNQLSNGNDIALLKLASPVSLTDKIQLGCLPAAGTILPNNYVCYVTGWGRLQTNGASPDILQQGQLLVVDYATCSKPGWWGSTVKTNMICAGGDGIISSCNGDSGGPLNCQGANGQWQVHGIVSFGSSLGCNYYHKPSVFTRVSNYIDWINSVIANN

COC(=O)CCC(=O)N[C@@H](C)C(=O)N[C@@H](C)C(=O)N1CCC[C@@H]1C(=O)N[C@H](C(=O)CCl)C(C)C
k on [1]: 3150 M⁻¹ s⁻¹ | k on [2]: 830 M⁻¹ s⁻¹
